Test results taken from patent US20250270180A1, “MEK INHIBITORS AND THERAPEUTIC USES THEREOF” (Immuneering Corporation, priority 2020, published 2025).

Assays:
CYP450 2C19 = CYP450 2C19 (Homo sapiens, UniProt P33261); experiment: CYP450 panel, 2C19; details: 10 μM; substrate mephenytoin
CYP450 2B6 = molecular target: T1, CYP450 2B6 (Homo sapiens, UniProt P20813); experiment: CYP450 panel, 2B6; details: 10 μM; substrate bupropion
T1 sequence (P20813 1-491): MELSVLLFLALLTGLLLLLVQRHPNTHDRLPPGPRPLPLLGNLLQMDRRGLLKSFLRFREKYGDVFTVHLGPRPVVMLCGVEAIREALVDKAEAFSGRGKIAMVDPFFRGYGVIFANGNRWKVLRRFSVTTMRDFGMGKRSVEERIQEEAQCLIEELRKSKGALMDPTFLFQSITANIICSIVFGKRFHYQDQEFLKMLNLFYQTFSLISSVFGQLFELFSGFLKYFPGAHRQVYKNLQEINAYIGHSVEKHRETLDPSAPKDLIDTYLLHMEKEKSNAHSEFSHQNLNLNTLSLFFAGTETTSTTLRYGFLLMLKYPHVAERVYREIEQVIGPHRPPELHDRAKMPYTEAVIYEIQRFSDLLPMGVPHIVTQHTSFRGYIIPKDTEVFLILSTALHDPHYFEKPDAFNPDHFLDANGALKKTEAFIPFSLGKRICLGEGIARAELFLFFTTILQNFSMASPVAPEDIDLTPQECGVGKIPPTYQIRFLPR

CYP450 2C9 = CYP450 2C9 (Homo sapiens, UniProt P11712); experiment: CYP450 panel, 2C9; details: 10 μM; substrate Diclofenac
hERG Channel = hERG Channel (Homo sapiens, UniProt Q12809); experiment: cell-based
[1] = Plasma stability, CD-1 mouse; assay type: in vitro ADME; details: 2 μM
Plasma stability, human = assay type: in vitro ADME; details: 2 μM
CYP450 3A4 = CYP450 3A4 (Homo sapiens, UniProt P08684); experiment: CYP450 panel, 3A4; details: 10 μM; for 3A4*: substrate midazolam; for 3A4^: substrate testosterone
CYP450 2D6 = CYP450 2D6 (Homo sapiens, UniProt P10635); experiment: CYP450 panel, 2D6; details: 10 μM; substrate dextromethophan
CYP450 1A2 = molecular target: T2, CYP450 1A2 (Homo sapiens, UniProt P05177); experiment: CYP450 panel, 1A2; assay type: in vitro ADME; details: 10 μM; substrate phenacetin
T2 sequence (P05177 1-516): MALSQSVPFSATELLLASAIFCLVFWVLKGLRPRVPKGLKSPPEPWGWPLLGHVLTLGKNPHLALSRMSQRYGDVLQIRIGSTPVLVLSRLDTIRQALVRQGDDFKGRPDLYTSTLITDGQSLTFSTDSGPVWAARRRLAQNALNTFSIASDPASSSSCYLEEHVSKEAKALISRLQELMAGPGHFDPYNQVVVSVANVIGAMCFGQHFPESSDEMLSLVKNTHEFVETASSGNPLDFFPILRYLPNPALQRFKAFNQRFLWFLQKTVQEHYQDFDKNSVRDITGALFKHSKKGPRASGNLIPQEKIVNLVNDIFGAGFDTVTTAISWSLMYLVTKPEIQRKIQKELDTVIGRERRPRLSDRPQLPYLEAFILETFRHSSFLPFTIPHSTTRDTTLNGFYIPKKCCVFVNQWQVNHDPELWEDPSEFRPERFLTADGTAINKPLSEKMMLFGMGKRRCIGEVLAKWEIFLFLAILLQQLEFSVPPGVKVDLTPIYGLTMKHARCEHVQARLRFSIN

[2] = Microsome stability, CD-1 mouse; details: microsomes, 2 μM
[3] = Absorption & efflux: Caco-2 permeability; details: human
CYP450 2C8 = molecular target: T3, CYP450 2C8 (Homo sapiens, UniProt P10632); experiment: CYP450 panel, 2C8; details: 10 μM; substrate amodiaquine
T3 sequence (P10632 1-490): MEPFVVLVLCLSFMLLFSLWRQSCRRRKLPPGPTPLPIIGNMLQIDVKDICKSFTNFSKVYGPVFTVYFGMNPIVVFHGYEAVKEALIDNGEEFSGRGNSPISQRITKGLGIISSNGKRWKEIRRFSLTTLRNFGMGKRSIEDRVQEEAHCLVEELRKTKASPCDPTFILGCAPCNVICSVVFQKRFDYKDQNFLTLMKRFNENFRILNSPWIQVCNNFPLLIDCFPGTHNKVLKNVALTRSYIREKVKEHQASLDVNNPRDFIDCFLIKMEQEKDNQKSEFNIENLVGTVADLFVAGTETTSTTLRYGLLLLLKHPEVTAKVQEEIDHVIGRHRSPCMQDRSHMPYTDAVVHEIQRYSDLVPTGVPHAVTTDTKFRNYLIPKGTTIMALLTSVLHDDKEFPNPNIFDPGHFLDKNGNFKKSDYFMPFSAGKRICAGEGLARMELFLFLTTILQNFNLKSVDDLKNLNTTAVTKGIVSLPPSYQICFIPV

[4] = Plasma stability, beagle dog; assay type: in vitro ADME; details: 2 μM
[5] = Microsome stability, human; assay type: in vitro ADME; details: microsomes, 2 μM
[6] = Microsome stability, beagle dog; assay type: in vitro ADME; details: microsomes, 2 μM
A549 pERK = experiment: A549-pERK, 2 h (quantitative Western, Jess); assay type: cell-based; details: Homo sapiens, A549, 2 h, 10 nM, phospho:total ratio normalized to DMSO control
Summary of the method: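 Cells treated in duplicate for 2 h with compound, lysed and protein-normalised (1 mg/mL pERK, 1.5 mg/mL pMEK). Quantitative capillary Western; phospho/total protein ratio normalised to DMSO.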

[7] = Caco-2, A-B Permeability Ranking
[8] = Caco-2, Mean Papp A-B (10^−6 cm/s)

Chain of CYP450 3A4 (P08684 whole entry): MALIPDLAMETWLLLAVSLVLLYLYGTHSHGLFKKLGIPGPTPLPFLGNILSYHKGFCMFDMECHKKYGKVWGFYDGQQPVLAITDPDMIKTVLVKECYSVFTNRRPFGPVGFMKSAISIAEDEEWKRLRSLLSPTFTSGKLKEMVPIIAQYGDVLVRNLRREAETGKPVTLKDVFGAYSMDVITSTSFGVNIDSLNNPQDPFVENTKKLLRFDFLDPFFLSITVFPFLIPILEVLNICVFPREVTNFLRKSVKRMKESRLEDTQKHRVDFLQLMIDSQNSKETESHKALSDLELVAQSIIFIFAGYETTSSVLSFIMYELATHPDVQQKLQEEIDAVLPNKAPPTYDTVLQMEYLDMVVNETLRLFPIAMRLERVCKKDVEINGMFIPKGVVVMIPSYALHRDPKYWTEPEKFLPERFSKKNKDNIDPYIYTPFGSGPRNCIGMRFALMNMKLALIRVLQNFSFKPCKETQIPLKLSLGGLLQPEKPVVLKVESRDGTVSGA
Chain of CYP450 2D6 (P10635 whole entry): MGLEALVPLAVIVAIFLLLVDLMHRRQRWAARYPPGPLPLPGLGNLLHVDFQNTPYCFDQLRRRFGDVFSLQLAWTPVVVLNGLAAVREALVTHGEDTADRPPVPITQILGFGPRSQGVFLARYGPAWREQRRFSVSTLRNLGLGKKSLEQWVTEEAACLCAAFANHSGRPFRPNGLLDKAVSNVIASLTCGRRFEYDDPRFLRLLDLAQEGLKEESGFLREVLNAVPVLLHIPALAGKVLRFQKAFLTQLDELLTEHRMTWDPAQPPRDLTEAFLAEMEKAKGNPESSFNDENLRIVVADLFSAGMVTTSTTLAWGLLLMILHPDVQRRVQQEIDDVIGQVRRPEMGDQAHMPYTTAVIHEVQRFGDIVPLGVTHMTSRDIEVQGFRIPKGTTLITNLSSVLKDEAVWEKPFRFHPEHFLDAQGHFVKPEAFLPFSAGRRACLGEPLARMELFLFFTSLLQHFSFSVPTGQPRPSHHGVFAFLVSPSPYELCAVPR
Chain of CYP450 2C19 (P33261 whole entry): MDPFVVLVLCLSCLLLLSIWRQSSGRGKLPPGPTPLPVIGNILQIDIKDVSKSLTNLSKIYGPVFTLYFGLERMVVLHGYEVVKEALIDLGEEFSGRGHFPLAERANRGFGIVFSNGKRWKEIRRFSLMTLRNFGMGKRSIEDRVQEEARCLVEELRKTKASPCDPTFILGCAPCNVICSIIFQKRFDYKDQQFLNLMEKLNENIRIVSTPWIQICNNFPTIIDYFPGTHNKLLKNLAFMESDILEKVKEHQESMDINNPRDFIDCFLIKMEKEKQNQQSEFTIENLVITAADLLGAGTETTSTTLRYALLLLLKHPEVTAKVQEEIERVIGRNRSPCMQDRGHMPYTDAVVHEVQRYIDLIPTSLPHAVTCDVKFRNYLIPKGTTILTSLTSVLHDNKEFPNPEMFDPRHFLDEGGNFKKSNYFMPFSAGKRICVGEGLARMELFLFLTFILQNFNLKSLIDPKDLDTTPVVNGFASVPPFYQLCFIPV
Chain of CYP450 2C9 (P11712 whole entry): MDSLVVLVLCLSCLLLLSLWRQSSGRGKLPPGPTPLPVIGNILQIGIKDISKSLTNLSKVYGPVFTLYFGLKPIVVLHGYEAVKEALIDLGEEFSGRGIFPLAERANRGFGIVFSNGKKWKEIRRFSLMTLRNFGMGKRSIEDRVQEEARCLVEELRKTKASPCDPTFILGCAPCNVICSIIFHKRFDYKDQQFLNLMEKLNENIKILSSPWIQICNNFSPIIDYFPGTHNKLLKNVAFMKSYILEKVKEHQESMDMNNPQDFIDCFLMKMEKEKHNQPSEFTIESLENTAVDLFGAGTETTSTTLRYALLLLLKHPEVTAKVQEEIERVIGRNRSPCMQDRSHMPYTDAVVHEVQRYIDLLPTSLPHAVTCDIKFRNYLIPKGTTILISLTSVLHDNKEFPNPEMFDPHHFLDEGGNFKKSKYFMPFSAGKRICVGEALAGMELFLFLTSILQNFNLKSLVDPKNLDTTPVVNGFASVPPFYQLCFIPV
Chain of hERG Channel (Q12809 whole entry): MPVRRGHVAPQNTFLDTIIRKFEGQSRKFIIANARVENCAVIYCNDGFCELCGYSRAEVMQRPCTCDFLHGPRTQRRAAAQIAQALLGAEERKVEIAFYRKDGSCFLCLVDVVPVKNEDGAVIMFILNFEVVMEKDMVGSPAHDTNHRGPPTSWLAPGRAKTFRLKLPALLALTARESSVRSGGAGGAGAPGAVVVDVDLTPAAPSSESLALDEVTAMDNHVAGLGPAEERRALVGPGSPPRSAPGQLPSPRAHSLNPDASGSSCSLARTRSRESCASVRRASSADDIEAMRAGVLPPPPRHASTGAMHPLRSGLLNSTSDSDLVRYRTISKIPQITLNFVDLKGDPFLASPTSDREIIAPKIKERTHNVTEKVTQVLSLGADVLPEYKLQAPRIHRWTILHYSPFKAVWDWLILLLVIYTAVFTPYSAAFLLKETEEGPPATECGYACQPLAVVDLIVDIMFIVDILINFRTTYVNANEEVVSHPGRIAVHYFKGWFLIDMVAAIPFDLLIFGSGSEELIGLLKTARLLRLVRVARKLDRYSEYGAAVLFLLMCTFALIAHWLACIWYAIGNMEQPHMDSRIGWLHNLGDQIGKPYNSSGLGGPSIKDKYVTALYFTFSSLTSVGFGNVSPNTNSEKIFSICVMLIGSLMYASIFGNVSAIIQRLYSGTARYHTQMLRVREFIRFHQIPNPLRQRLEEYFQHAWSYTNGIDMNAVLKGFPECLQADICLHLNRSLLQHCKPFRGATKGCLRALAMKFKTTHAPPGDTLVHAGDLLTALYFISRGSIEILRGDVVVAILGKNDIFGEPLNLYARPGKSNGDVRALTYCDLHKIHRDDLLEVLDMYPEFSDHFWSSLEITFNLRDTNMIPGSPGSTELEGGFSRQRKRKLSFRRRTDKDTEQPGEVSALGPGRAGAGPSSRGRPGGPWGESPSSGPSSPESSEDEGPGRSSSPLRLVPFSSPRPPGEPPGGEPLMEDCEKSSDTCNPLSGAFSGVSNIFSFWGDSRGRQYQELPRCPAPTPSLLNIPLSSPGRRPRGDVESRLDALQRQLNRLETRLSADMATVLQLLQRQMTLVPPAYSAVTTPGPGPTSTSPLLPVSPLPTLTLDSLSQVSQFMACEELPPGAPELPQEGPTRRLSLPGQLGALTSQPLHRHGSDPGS

CNS(=O)(=O)Nc1cccc(Cc2c(CNC3CC3)c3ccc(OC(=O)N(C)C)cc3oc2=O)c1F [Compound 11]
2C19* (CYP450 2C19): 9.7 | 2B6* (CYP450 2B6): 12.1 | 2C9* (CYP450 2C9): 12.9 | IC50 (hERG Channel): 1.1 µM | CD-1 Mouse (% Reamining @2 hour) [1]: 81.4% | Human (% Reamining @2 hour) (Plasma stability, human): 93.7% | 3A4* (CYP450 3A4): 36.1 | 3A4^ (CYP450 3A4): 44.8 | 2D6* (CYP450 2D6): 9.8 | 1A2* (CYP450 1A2): 6.9 | CD-1 Mouse (% Reamining @1 hour) [2]: 7.0% | Papp B→A at 2 h, 10 μM [3]: 19.7 ×10⁻⁶ cm/s | efflux ratio at 2 h, 10 μM [3]: 2.15 | Papp A→B at 2 h, 10 μM [3, 7]: > 1 ×10⁻⁶ cm/s | Papp A→B at 2 h, 10 μM [3, 8]: 9.18 ×10⁻⁶ cm/s | 2C8* (CYP450 2C8): 0.8 | Beagle Dog (% Reamining @2 hour) [4]: 97.8% | Human (% Reamining @1 hour) [5]: 28.9% | Beagle Dog (% Reamining @1 hour) [6]: 4.9%

CNS(=O)(=O)Nc1cccc(Cc2c(CN3CCN(Cc4ccccc4)CC3)c3ccc(OC(=O)N(C)C)cc3oc2=O)c1F [Compound 16]
2C19* (CYP450 2C19): 88.4 | 2B6* (CYP450 2B6): 11.6 | 2C9* (CYP450 2C9): 42.4 | IC50 (hERG Channel): 0.1 µM | CD-1 Mouse (% Reamining @2 hour) [1]: 92.7% | Human (% Reamining @2 hour) (Plasma stability, human): 99.0% | 3A4* (CYP450 3A4): 75.1 | 3A4^ (CYP450 3A4): 92.1 | activity at 0.01 µM (A549 pERK): 91.6% | 2D6* (CYP450 2D6): 55.0 | 1A2* (CYP450 1A2): 6.9 | CD-1 Mouse (% Reamining @1 hour) [2]: 0.6% | Papp B→A at 2 h, 10 μM [3]: 5.61 ×10⁻⁶ cm/s | efflux ratio at 2 h, 10 μM [3]: 0.743 | Papp A→B at 2 h, 10 μM [3, 7]: > 1 ×10⁻⁶ cm/s | Papp A→B at 2 h, 10 μM [3, 8]: 7.55 ×10⁻⁶ cm/s | 2C8* (CYP450 2C8): 45.5 | Beagle Dog (% Reamining @2 hour) [4]: 101.2% | Human (% Reamining @1 hour) [5]: 1.4% | Beagle Dog (% Reamining @1 hour) [6]: 0.4%

CNS(=O)(=O)Nc1cccc(Cc2c(CN3CCN(C)CC3)c3ccc(OC(=O)N(C)C)cc3oc2=O)c1F [Compound 15]
2C19* (CYP450 2C19): 4.3 | 2B6* (CYP450 2B6): 16.3 | 2C9* (CYP450 2C9): 3.0 | IC50 (hERG Channel): 6.5 µM | CD-1 Mouse (% Reamining @2 hour) [1]: 87.1% | Human (% Reamining @2 hour) (Plasma stability, human): 98.1% | 3A4* (CYP450 3A4): 21.3 | 3A4^ (CYP450 3A4): 20.5 | activity at 0.01 µM (A549 pERK): 73.8% | 2D6* (CYP450 2D6): 0.5 | 1A2* (CYP450 1A2): 7.8 | CD-1 Mouse (% Reamining @1 hour) [2]: 77.6% | Papp B→A at 2 h, 10 μM [3]: 34.9 ×10⁻⁶ cm/s | efflux ratio at 2 h, 10 μM [3]: 29.3 | Papp A→B at 2 h, 10 μM [3, 7]: > 1 ×10⁻⁶ cm/s | Papp A→B at 2 h, 10 μM [3, 8]: 1.19 ×10⁻⁶ cm/s | 2C8* (CYP450 2C8): −16.9 | Beagle Dog (% Reamining @2 hour) [4]: 89.1% | Human (% Reamining @1 hour) [5]: 75.8% | Beagle Dog (% Reamining @1 hour) [6]: 46.0%

CNS(=O)(=O)Nc1cccc(Cc2c(CNc3ccn[nH]3)c3ccc(OC(=O)N(C)C)cc3oc2=O)c1F [Compound 12]
2C19* (CYP450 2C19): 16.0 | 2B6* (CYP450 2B6): 14.9 | 2C9* (CYP450 2C9): 8.4 | IC50 (hERG Channel): > 30 µM | CD-1 Mouse (% Reamining @2 hour) [1]: 86.6% | Human (% Reamining @2 hour) (Plasma stability, human): 100.5% | 3A4* (CYP450 3A4): 29.2 | 3A4^ (CYP450 3A4): 31.9 | 2D6* (CYP450 2D6): 4.5 | 1A2* (CYP450 1A2): 13.0 | CD-1 Mouse (% Reamining @1 hour) [2]: 28.2% | Papp B→A at 2 h, 10 μM [3]: 17.9 ×10⁻⁶ cm/s | efflux ratio at 2 h, 10 μM [3]: 16.9 | Papp A→B at 2 h, 10 μM [3, 7]: > 1 ×10⁻⁶ cm/s | Papp A→B at 2 h, 10 μM [3, 8]: 1.06 ×10⁻⁶ cm/s | 2C8* (CYP450 2C8): 2.4 | Beagle Dog (% Reamining @2 hour) [4]: 102.6% | Human (% Reamining @1 hour) [5]: 32.9% | Beagle Dog (% Reamining @1 hour) [6]: 42.8%
